Measurements from patent US12144864B2, “Tubulysins and protein-tubulysin conjugates” (Regeneron Pharmaceuticals, Inc., priority 2018, dated 2024).
Where two headings read alike, the source gives them in different places.

Experiments:
[1] = system: T47D cells; assay: Cell-based killing assay of payloads (CellTiter-Glo), T47D cells; design: species or system human; conditions: 5-day incubation; for IC50: Homo sapiens, T47D, 120 h
Method: (§1) To test the ability of the disclosed tubulysin payloads to kill human cell lines, an in vitro cytotoxicity assay was performed. In vitro cytotoxicity of the disclosed payloads, as well as reference compounds, were evaluated using the CellTiter-Glo Assay Kit (Promega, Cat #G7573), in which the quantity of ATP present is used to determine the number of viable cells in culture. For the assay, C4-2, HEK293, or T47D cells were seeded at 4000 cells/well on Nunclon white 96-well plates in complete growth medium (DME high glucose:Ham's F12 at 4:1, 10% FBS, 100 units/ml Penicillin, 100 ug/ml streptomycin, 53 ug/ml glutatmine, 10 ug/ml insulin, 220 ng/ml biotin, 12.5 pg/ml T3, 12.5 ug/ml Adenine, 4 ug/ml transferrin for C42 cells; DME high glucose, 10% FBS, 100 units/ml Penicillin, 100 ug/ml streptomycin, 53 ug/ml glutatmine for HEK293; RPMI, 10% FBS, 100 units/ml Penicillin, 100 ug/ml streptomycin, 53 ug/ml glutatmine, 10 ug/ml insulin, 10 mM HEPEs, 200 nM Sodium Pyruvate for T47D cells) and grown overnight at 37° C. in 5% CO2. For cell viability curves, 1:3 serially diluted payloads were added to the cells at final concentrations ranging from 100 nM to […], including a no treatment control group, and were then incubated for 5 days. After the 5-day incubation, cells were incubated at room temperature with 100 μL of CellTiter-Glo reagents for 10 minutes. Relative luminescence units (RLU) were determined on a Victor plate reader (PerkinElmer). The IC50 values were determined from a four-parameter logistic equation over a 10-point response curve (GraphPad Prism). All IC50 values are expressed in molar (M) concentration. The percent cell killing (% kill) at the maximum concentration tested was estimated from the following formula (100−% viable cells). Averages±standard deviation (SD) are included where replicate experiments were performed.

[2] = system: HEK293 cells; assay: Cell-based killing assay of payloads (CellTiter-Glo), HEK293 cells; design: species or system human; conditions: 5-day incubation; for IC50: Homo sapiens, HEK293, 120 h
Method: as §1

[3] = system: HCT15 cells; assay: cells; type: cell-based, human; conditions: HCT15 cells; for HCT-15 + verapamil % Kill / HCT-15 % Kill: maximum % cell killing
Outline: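 HCT15 colorectal carcinoma cells, 1000 per well in RPMI/10% FBS, with or without 5 ug/mL verapamil, exposed to 1:3 serially diluted payloads for 5 days at 37 °C. Viability measured by CellTiter-Glo ATP luminescence; IC50 from four-parameter logistic fit of a 10-point curve, % kill at top concentration.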

[4] = system: C4-2 cells; assay: Cell-based killing assay of payloads (CellTiter-Glo), C4-2 cells; design: species or system human; conditions: 5-day incubation; for IC50: Homo sapiens, C4-2, 120 h, average ± SD where replicates; for C4-2 % Kill: at maximum concentration tested (100 − % viable cells)
Outline: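 Cells plated at 4000/well in line-specific complete medium, grown overnight, then exposed to 1:3 serial dilutions of payload (100 nM to […]) for 5 days. ATP-based CellTiter-Glo luminescence read; IC50 from four-parameter logistic 10-point fit, and % kill at top concentration as 100 − % viable.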

[5] = system: HL60/MX2 cells; assay: Cytotoxicity in panel of MDR cell lines, HL60/MX2 (72 h and 144 h); type: cell-based, human; conditions: for IC50: Homo sapiens
Outline: (§2)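 MDR lines (HCT-15; doxorubicin-resistant H69AR; mitoxantrone-resistant MES-SA/MX2 and HL60/MX2) seeded at 1000 cells/well in normal growth media, treated with 1:3 serially diluted payloads for 72 h and 144 h. Viability by CellTiter-Glo ATP luminescence; IC50 from four-parameter logistic fit of 10-point curves.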

[6] = system: HCT-15 cells; assay: Cytotoxicity in panel of MDR cell lines, HCT-15 (72 h and 144 h); type: cell-based, human; conditions: for IC50: Homo sapiens
Outline: as §2

[7] = system: H69AR cells; assay: Cytotoxicity in panel of MDR cell lines, H69AR (72 h and 144 h); type: cell-based, human; conditions: for IC50: Homo sapiens
Outline: as §2

[8] = system: MES-SA/MX2 cells; assay: Cytotoxicity in panel of MDR cell lines, MES-SA/MX2 (72 h and 144 h); type: cell-based, human; conditions: for IC50: Homo sapiens
Outline: as §2

[9] = at maximum concentration tested
[10] = with 5 ug/mL Verapamil, read-out: HCT-15 + verapamil IC50
[11] = Homo sapiens, HCT-15, without Verapamil, read-out: HCT-15 IC50
[12] = 72 h incubation, read-out: HL60/MX2 IC50 72 h
[13] = 144 h incubation, read-out: HL60/MX2 IC50 144 h
[14] = 72 h incubation, read-out: HCT-15 IC50 72 h
[15] = 144 h incubation, read-out: HCT-15 IC50 144 h
[16] = 72 h incubation, read-out: H69AR IC50 72 h
[17] = 144 h incubation, read-out: H69AR IC50 144 h
[18] = 72 h incubation, read-out: MES-SA/MX2 IC50 72 h
[19] = 144 h incubation, read-out: MES-SA/MX2 IC50 144 h

Structure (SMILES) | HCT-15 + verapamil % Kill ([3]; with 5 ug/mL Verapamil) [%] | IC50 [3, 10] [nM] | HCT-15 % Kill ([3]; without Verapamil) [%] | IC50 [3, 11] [nM] | IC50 [4] [nM] | C4-2 % Kill [4] [%] | HL60/MX2 % Kill 72 h ([5]; 72 h incubation) [%] | HL60/MX2 % Kill 144 h ([5]; 144 h incubation) [%] | IC50 [5, 12] [nM] | IC50 [5, 13] [nM] | HCT-15 % Kill 72 h ([6]; 72 h incubation) [%] | HCT-15 % Kill 144 h ([6]; 144 h incubation) [%] | IC50 [6, 14] [nM] | IC50 [6, 15] [nM] | H69AR % Kill 72 h ([7]; 72 h incubation) [%] | H69AR % Kill 144 h ([7]; 144 h incubation) [%] | IC50 [7, 16] [nM] | IC50 [7, 17] [nM] | MES-SA/MX2 % Kill 72 h ([8]; 72 h incubation) [%] | MES-SA/MX2 % Kill 144 h ([8]; 144 h incubation) [%] | also measured
CC[C@H](C)[C@H](NC(=O)[C@H]1CCCCN1C)C(=O)N(CCCCc1c[nH]nn1)[C@H](C[C@@H](OC(C)=O)c1nc(C(=O)N[C@@H](Cc2ccc(N)cc2)CC(C)(C)C(=O)O)cs1)C(C)C [IVj, (S)-4-(2-((1R,3R)-3-((2S,3S)—N-(4-(1H-1,2,3-triazol-5-yl)butyl)-3-methyl-2-((R)-1-methylpiperidine-2-carboxamido)pentanamido)-1-acetoxy-4-methylpentyl)thiazole-4-carboxamido)-5-(4-aminophenyl)-2,2-dimethylpentanoic acid] | 98.4 | 5.56 | 96.4 | 7.8 | 7.16 | 94.5 | – | – | – | – | – | – | – | – | – | – | – | – | – | – | IC50 [1]: 17.7 nM; T47D % Kill [1, 9]: 79.9%; IC50 [2]: 17.6 nM; HEK293 % Kill [2, 9]: 75.5%
CC[C@H](C)[C@H](NC(=O)[C@H]1CCCCN1C)C(=O)N(CCCCc1cn(-c2ccccc2)nn1)[C@H](C[C@@H](OC(C)=O)c1nc(C(=O)N[C@@H](Cc2ccc(N)cc2)CC(C)(C)C(=O)O)cs1)C(C)C [IVp, (S)-4-(2-((1R,3R)-1-acetoxy-4-methyl-3-((2S,3S)-3-methyl-2-((R)-1-methylpiperidine-2-carboxamido)-N-(4-(1-phenyl-1H-1,2,3-triazol-4-yl)butyl)pentanamido)pentyl)thiazole-4-carboxamido)-5-(4-aminophenyl)-2,2-dimethylpentanoic acid] | 97.6 | 0.0864 | 98.7 | 0.239 | 0.177 | 94.2 | 97.5 | 99.9 | 0.0237 | < 0.015 | 97.6 | 99.7 | 0.181 | 0.231 | 96.3 | 99.2 | 0.644 | 1.12 | 98.8 | 99.9 | IC50 [8, 18]: 0.792 nM; IC50 [8, 19]: 1.66 nM
[2H]c1cc(C[C@@H](CC(C)(C)C(=O)O)NC(=O)c2csc([C@@H](C[C@H](C(C)C)N(CCCCCC)C(=O)[C@@H](NC(=O)[C@H]3CCCCN3C)[C@@H](C)CC)OC(C)=O)n2)cc([2H])c1N [IVs, (S)-4-(2-((1R,3R)-1-Acetoxy-3-((2S,3S)—N-hexyl-3-methyl-2-((R)-1-methylpiperidine-2-carboxamido)pentanamido)-4-methylpentyl)thiazole-4-carboxamido)-5-(4-aminophenyl-3,5-d2)-2,2-dimethylpentanoic acid] | 98.8 | 0.0459 | 99.1 | 0.108 | 0.0499 | 93.8 | 98.4 | 100 | < 0.015 | < 0.015 | 97.6 | 99.7 | 0.0371 | 0.0501 | 96.8 | 99.4 | 0.161 | 0.281 | 99.2 | 100 | IC50 [8, 18]: 0.102 nM; IC50 [8, 19]: 0.21 nM
CCCCCCN(C(=O)[C@@H](NC(=O)[C@H]1CCCCN1C)[C@@H](C)CC)[C@H](C[C@@H](OC(C)=O)c1nc(C(=O)N[C@@H](Cc2ccc(N)c(F)c2)CC(C)(C)C(=O)O)cs1)C(C)C [IVvB, 4-({2-[(1R,3R)-1-(Acetyloxy)-3-[(2S,3S)—N-hexyl-3-methyl-2-{[(2R)-1-methylpiperidin-2-yl]formamido}pentanamido]-4-methylpentyl]-1,3-thiazol-4-yl}formamido)-5-(4-amino-3-fluorophenyl)-2,2-dimethylpentanoic acid] | 97.7 | 0.015 | 97.3 | 0.025 | 0.0215 | 94.6 | 98.2 | 99.8 | < 0.015 | < 0.015 | 97.7 | 99.6 | < 0.015 | 0.0228 | 96.9 | 99.1 | 0.0599 | 0.158 | 99.1 | 99.9 | IC50 [8, 18]: 0.0456 nM; IC50 [8, 19]: 0.0658 nM
CCCCCON(C(=O)[C@@H](NC(=O)[C@H]1CCCCN1C)[C@@H](C)CC)[C@H](C[C@@H](OC(=O)NC)c1nc(C(=O)N[C@@H](Cc2ccc(N)cc2)CC(C)(C)C(=O)O)cs1)C(C)C [VIh, (S)-5-(4-Aminophenyl)-4-(2-((5R,7R)-7-isopropyl-8-((2S,3S)-3-methyl-2-((R)-1-methylpiperidine-2-carboxamido)pentanoyl)-3-oxo-4,9-dioxa-2,8-diazatetradecan-5-yl)thiazole-4-carboxamido)-2,2-dimethylpentanoic acid] | 97.8 | 0.0716 | 99 | 0.263 | 0.159 | 93.9 | 97.6 | 99.9 | 0.0391 | < 0.015 | 97.9 | 99.7 | 0.366 | 0.515 | 96.3 | 99.1 | 1.07 | 1.73 | 98.5 | 99.8 | IC50 [8, 18]: 1.26 nM; IC50 [8, 19]: 2.72 nM
CC[C@H](C)[C@H](NC(=O)[C@H]1CCCCN1C)C(=O)N(OCCCO)[C@H](C[C@@H](OC(C)=O)c1nc(C(=O)N[C@@H](Cc2ccc(O)cc2)C[C@H](C)C(=O)O)cs1)C(C)C [Vk, (2S,4R)-4-(2-((1R,3R)-1-Acetoxy-3-((2S,3S)—N-(3-hydroxypropoxy)-3-methyl-2-((R)-1-methylpiperidine-2-carboxamido)pentanamido)-4-methylpentyl)thiazole-4-carboxamido)-5-(4-hydroxyphenyl)-2-methylpentanoic acid] | 83 | 42.7 | 41.5 | ≥ 100 | – | – | – | – | – | – | – | – | – | – | – | – | – | – | – | – | IC50 [1]: > 100 nM; IC50 [2]: > 100 nM
